Laboratory results taken from paper PMC3561959 (Nucleic Acids Research, 2012).

How the values were obtained:
[1] = target: DBD-F^MBP (Homo sapiens, UniProt P27694); format: binding; conditions: competitive titration, fluorescence anisotropy
[2] = target: RPA (Homo sapiens, UniProt P27694); experiment: Helix destabilization assay; format: biochemical; conditions: EMSA, dsDNA probe, 200 µM of each compound
Sequence of RPA (P27694 whole entry): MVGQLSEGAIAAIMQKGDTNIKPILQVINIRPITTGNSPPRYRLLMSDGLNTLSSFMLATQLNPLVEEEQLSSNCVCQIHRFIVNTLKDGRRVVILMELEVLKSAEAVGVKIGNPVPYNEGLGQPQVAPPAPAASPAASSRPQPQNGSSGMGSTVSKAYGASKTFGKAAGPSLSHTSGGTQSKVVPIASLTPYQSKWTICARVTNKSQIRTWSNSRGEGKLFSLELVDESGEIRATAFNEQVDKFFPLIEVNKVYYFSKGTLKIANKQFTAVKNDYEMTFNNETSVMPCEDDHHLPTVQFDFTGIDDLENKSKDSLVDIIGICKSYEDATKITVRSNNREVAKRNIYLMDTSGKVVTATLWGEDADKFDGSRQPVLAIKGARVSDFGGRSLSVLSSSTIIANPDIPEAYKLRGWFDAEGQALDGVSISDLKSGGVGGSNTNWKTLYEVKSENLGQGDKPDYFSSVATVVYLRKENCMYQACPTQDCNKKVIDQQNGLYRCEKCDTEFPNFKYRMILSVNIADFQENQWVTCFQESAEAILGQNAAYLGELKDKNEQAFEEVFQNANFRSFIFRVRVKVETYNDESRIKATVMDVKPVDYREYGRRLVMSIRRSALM
Sequence of RPA (P15927 whole entry partner): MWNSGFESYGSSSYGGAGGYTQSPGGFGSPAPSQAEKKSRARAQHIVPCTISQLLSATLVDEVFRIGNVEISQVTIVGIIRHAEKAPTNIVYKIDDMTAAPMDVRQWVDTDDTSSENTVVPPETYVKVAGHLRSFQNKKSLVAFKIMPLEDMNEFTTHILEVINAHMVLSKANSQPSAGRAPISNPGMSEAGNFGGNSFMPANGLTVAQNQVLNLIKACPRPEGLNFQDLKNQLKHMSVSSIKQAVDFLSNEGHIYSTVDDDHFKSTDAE
Sequence of RPA (P35244 whole entry partner): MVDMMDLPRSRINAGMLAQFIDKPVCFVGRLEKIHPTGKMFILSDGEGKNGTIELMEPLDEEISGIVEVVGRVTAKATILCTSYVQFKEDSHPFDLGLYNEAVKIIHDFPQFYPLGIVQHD

Sequence of DBD-F^MBP (P27694 1-168): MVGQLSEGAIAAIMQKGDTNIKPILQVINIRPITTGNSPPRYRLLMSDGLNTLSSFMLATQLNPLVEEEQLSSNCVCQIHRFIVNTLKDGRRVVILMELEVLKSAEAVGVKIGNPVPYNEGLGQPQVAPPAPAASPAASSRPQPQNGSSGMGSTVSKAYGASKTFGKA

Compound | competition with X-rhodamine-labelled p53TAD2 for binding to DBD-F^MBP [1] | inhibition of helix destabilization by RPA [2]
O=C(O)C1CCC(C(=O)O)CC1 (stereo not shown) [1,4-cyclohexanedicarboxylic acid] | no evidence of binding | no effect
O=C(O)CCC(=O)O [succinic acid] | no evidence of binding | no effect
